Values of other authors in US7030094B2, “Immunostimulant compositions comprising an aminoalkyl glucosaminide phosphate and QS-21” (priority 2002, dated 2006).
Where two headings read alike, the source gives them in different places.

Q: For QS-21, which critical micellar concentration (in phosphate buffered saline) is on record?
A: The critical micellar concentration was ~0.02 % (w/v).

Q: And the critical micellar concentration (in water)?
A: Its critical micellar concentration is “about 0.03 % (w/v)”.

Q: What about the “concentration causing hemolysis of sheep red blood cells” value (sheep red blood cells) of the same substance?
A: Its value is ≥ 25 µg/mL.
